Results from publication PMC5708337 (2017).

Columns and labels:
[1] = tested on: DSbiotin (DNA, duplex) GGCATAGTGCGTGGGCGTTAGC/GCTAACGCCCACGCACTATGCC; test: SPR, single concentration; details: Na+ (100 mM NaCl, 10 mM sodium cacodylate); pH 5.5, 0.05% Tween-20, 5% DMSO; 50 μM compound
[2] = tested on: c-MycCBiotin (DNA, i motif) CCTTCCCCACCCTCCCCACCCTCCCCA; test: SPR, single concentration; details: Na+ (100 mM NaCl, 10 mM sodium cacodylate); pH 5.5, 0.05% Tween-20, 5% DMSO; 50 μM compound
[3] = tested on: hTeloCBiotin (DNA, i motif) TAACCCTAACCCTAACCCTAACCC; test: SPR, single concentration; details: Na+ (100 mM NaCl, 10 mM sodium cacodylate), pH 5.5, 0.05% Tween-20, 5% DMSO, 50 μM compound; for binding: NB
[4] = tested on: hTeloC (DNA, i motif) TAACCCTAACCCTAACCCTAACCC; test: fluorescent intercalator displacement; details: Na+ (10 mM sodium cacodylate); pH 5.5; thiazole orange 2 μM displaced; 1 μM DNA
[5] = tested on: hTeloCBiotin (DNA, i motif) TAACCCTAACCCTAACCCTAACCC; test: SPR; details: Na+ (100 mM NaCl, 10 mM sodium cacodylate); pH 5.5, 0.05% Tween-20, 5% DMSO
[6] = tested on: DSbiotin (DNA, duplex) GGCATAGTGCGTGGGCGTTAGC/GCTAACGCCCACGCACTATGCC; test: SPR; details: Na+ (100 mM NaCl, 10 mM sodium cacodylate); pH 5.5, 0.05% Tween-20, 5% DMSO
[7] = tested on: c-MycCBiotin (DNA, i motif) CCTTCCCCACCCTCCCCACCCTCCCCA; test: SPR; details: Na+ (100 mM NaCl, 10 mM sodium cacodylate); pH 5.5, 0.05% Tween-20, 5% DMSO

Compound	%Rmax [1] [%]	%Rmax [2] [%]	binding [3]	DC50 [4] [µM]	%Rmax [3] [%]	Kd [5] [µM]	Kd [6] [µM]	Kd [7] [µM]
CC1=NCCc2c1[nH]c1cc(O)ccc21	123	64	no	–	–	–	–	–
CCN(CC)CCOc1ccc2c(c1)C(=O)c1cc(OCCN(CC)CC)ccc1-2	811	420	–	2.4	116	–	–	–
CCN(CC)Cc1cc(Nc2ccnc3cc(Cl)ccc23)ccc1O	59	31	–	–	15	–	–	–
CN(C)c1ccc(O)c2c1C[C@H]1C[C@H]3[C@H](N(C)C)C(O)=C(C(N)=O)C(=O)[C@@]3(O)C(O)=C1C2=O	69	36	–	–	29	–	–	–
NC[C@H]1O[C@H](O[C@H]2[C@H](O)[C@@H](O[C@H]3O[C@H](CO)[C@@H](O)[C@H](N)[C@H]3O)[C@H](N)C[C@@H]2N)[C@H](N)C[C@@H]1O	233	121	–	2.9	325	17 ± 2.0	18 ± 1.1	13 ± 1.8
Nc1ccc(N=Nc2ccccc2)c(N)n1	137	71	–	–	38	–	–	–
O=C1c2c(O)ccc(O)c2C(=O)c2c(NCCNCCO)ccc(NCCNCCO)c21	4894	2534	–	1.8	2125	–	–	–
O=C1c2ccc(O)c(O)c2C(=O)c2c(O)ccc(O)c21	95	49	no	–	–	–	–	–
